The source made the active and inactive calls. The rule behind the calls is not given here.
Columns and labels:
HEK293 = test: Cytotoxicity against HEK293 cells at 20 uM incubated for 24 hrs by MTT assay; format: toxicity, cell-based; conditions: human, hek293, 24 h
[1] = molecular target: T1, NAD-dependent protein deacetylase sirtuin-1 (Homo sapiens) (UniProt Q96EB6); test: Activation of SIRT1 deacetylation (unknown origin) transfected in HEK293 cells cotransfected with PG13-Luc/myc-tagged p53/flag-tagged Sirt1/RSV-beta-galactosidase assessed as decrease in luciferase activity at 10 uM incubated for 24 hrs by firefly luciferase assay; format: cell-based
T1 sequence (whole entry): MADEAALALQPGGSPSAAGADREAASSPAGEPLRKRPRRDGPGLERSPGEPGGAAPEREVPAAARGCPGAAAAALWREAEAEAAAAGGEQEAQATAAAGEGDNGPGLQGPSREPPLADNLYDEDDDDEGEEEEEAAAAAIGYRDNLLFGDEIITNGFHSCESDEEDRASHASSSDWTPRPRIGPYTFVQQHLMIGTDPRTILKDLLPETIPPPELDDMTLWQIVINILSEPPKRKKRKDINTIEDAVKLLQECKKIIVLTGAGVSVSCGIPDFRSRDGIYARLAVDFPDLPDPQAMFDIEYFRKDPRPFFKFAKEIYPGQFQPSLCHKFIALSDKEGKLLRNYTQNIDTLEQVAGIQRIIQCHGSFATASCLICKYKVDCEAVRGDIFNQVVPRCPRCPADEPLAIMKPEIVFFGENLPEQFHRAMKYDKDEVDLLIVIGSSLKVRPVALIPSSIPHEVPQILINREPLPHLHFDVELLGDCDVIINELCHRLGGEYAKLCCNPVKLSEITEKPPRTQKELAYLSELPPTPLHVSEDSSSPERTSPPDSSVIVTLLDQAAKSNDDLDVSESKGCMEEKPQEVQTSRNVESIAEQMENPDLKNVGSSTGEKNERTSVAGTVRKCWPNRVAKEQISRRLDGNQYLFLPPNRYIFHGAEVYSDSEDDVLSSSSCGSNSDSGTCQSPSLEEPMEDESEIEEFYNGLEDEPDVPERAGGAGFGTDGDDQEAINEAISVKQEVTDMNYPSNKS

[2] = molecular target: T1, NAD-dependent protein deacetylase sirtuin-1 (Homo sapiens); test: Activation of SIRT1 deacetylation (unknown origin) transfected in HEK293 cells cotransfected with PG13-Luc/myc-tagged p53/flag-tagged Sirt1/RSV-beta-galactosidase assessed as decrease in luciferase activity at 20 uM incubated for 24 hrs by firefly luciferase assay relative to control; format: cell-based; set-up: scale not given: the % may be the effect or the level left; conditions: filed as activator
[3] = molecular target: T1, NAD-dependent protein deacetylase sirtuin-1 (Homo sapiens); test: Activation of SIRT1 deacetylation (unknown origin) transfected in HEK293 cells cotransfected with PG13-Luc/myc-tagged p53/flag-tagged Sirt1/RSV-beta-galactosidase assessed as decrease in luciferase activity incubated for 24 hrs by firefly luciferase assay; format: cell-based; conditions: filed as activator, dose 10-20 µM
[4] = molecular target: T1, NAD-dependent protein deacetylase sirtuin-1 (Homo sapiens); test: Activation of SIRT1 deacetylation (unknown origin) in flag tagged Sirt1 overexpressed HEK293 cells assessed as increase in NAD+/NADH ratio incubated for 12 hrs by fluorescence microplate reader analysis; format: cell-based; conditions: filed as activator, dose 10-20 µM

Compound	Activity (HEK293)	other results
O=C(/C=C1/C(=O)Nc2ccccc21)OC[C@H]1O[C@@H](OCCc2ccc(O)cc2)[C@H](O)[C@@H](O)[C@@H]1O	Non-Toxic	
O=C(C[C@H]1C(=O)Nc2ccccc21)OC[C@H]1O[C@@H](OCCc2ccc(O)cc2)[C@H](O)[C@@H](O)[C@@H]1O	Non-Toxic	Activity [1]: inactive; Activity [2]: 65%
CC1=CC[C@@H](C(C)(C)O[C@@H]2O[C@H](CO)[C@@H](O)[C@H](O)[C@H]2O)CC1	Non-Toxic	
CO[C@]1(CC(=O)OC[C@H]2O[C@@H](OCCc3ccc(O)cc3)[C@H](O)[C@@H](O)[C@@H]2O)OC(=O)Nc2ccccc21	Non-Toxic	
O=C(C[C@@H]1C(=O)Nc2ccccc21)OC[C@H]1O[C@@H](OCCc2ccc(O)c(O)c2)[C@H](O)[C@@H](O)[C@@H]1O	Non-Toxic	
O=C(C[C@H]1C(=O)Nc2ccccc21)OC[C@H]1O[C@@H](OCCc2ccc(O)c(O)c2)[C@H](O)[C@@H](O)[C@@H]1O	Non-Toxic	
OC[C@@H](O)[C@@H](O)[C@H](O)[C@H](O)[C@@H](O)CO	Non-Toxic	
O=C(C[C@@]1(O)C(=O)Nc2ccccc21)OC[C@H]1O[C@@H](OCCc2ccc(O)cc2)[C@H](O)[C@@H](O)[C@@H]1O	Non-Toxic	
CO[C@@]1(CC(=O)OC[C@H]2O[C@@H](OCCc3ccc(O)cc3)[C@H](O)[C@@H](O)[C@@H]2O)OC(=O)Nc2ccccc21	Non-Toxic	
O=C(C[C@@H]1C(=O)Nc2ccccc21)OC[C@H]1O[C@@H](OCCc2ccc(O)cc2)[C@H](O)[C@@H](O)[C@@H]1O	Non-Toxic	Activity [3]: Dose-Dependent Effect; Activity [4]: Dose-Dependent Effect; Activity ([1]; filed as activator): Active; Activity [2]: 45%
O=C(C[C@]1(O)C(=O)Nc2ccccc21)OC[C@H]1O[C@@H](OCCc2ccc(O)cc2)[C@H](O)[C@@H](O)[C@@H]1O	Non-Toxic	
